# Measured values as given in patent publication US11098026B2, “Fused bicyclic compounds, compositions and applications thereof” (IMPETIS BIOSCIENCES LIMITED, priority 2017, dated 2021).
# Target: T1, human GPR91 receptor (Homo sapiens, UniProt Q9BXA5)
# T1 construct: expressed in transfected cells; host or cells: CHO-K1 NFAT cells
# T1 sequence (Q9BXA5 1-334): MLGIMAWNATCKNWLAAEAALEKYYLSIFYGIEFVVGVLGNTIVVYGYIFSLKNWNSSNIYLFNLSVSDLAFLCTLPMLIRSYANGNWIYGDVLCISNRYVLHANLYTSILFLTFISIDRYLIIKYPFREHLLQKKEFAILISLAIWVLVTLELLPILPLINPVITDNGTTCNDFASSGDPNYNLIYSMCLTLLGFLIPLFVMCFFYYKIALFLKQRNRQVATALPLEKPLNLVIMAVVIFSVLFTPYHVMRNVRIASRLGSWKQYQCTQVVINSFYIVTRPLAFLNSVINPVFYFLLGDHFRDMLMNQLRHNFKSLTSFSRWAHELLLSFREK
# Assay: Human GPR91 calcium mobilization assay
# Format: cell-based
# Conditions: CHO-K1 NFAT cells over expressing human GPR91 receptor; Fluo4 AM; agonist sodium succinate; flex station; read-out: hGPR91 IC50 (μM)*
# Experimental: Human GPR91 Calcium Mobilization Assay
# To determine IC50 in CHO NFAT cells over expressing human GPR91 receptor calcium mobilization assay in flex station mode was carried out.
# Grow CHO-K1 NFAT cells over expressing human GPR91 receptors in alpha MEM media were supplemented with 10% FBS (heat inactivated), 0.5 mg/ml of G-418, 0.5 mg/ml of Zeocin and 0.6 mg/ml of Hygromycin B.
# The cells were seeded at least 21 hours before the experiment at the density of 25000/well in 96 well plate (Corning cat #no. 3603). It was made sure that cells were at least 95% confluent on the day of assay. No antibiotics were used for seeding purpose.
# On the day of assay the media was discarded from plates and plates were washed with 100 μl of HBSS assay buffer. The plates were loaded with Fluo4 AM at 2 μM concentration. Pluronic F-127 dye was solubilized in calcium assay buffer containing 0.1% BSA, i.e., 20 μl dye+20 μl Pluronic F127 for 10 ml. Appropriate amounts of 100× probenecid was added to the loading mixture 1× final (100 μl per 10 ml). Total volume of dye loaded was made 100 μl. The plate was then wrapped in aluminium foil to protect from light and were incubated for 90 mins at 37 degrees in cell culture incubator. At the end of incubation the plates was washed again with 100 μl of HBSS buffer without BSA and 75 μl of HBSS buffer was added (without BSA) to the plate.
# Further, 8 point-Dose response curve of the compounds of the present disclosure was prepared in 100% DMSO followed by 57.14-fold dilution to 1.75× in 1.75% DMSO in assay buffer. 100 μL of 1.75×NCE was added to the wells as shown below and incubated at room temp on orbital shaker at 300 rpm for 15 min. Flexstation [excitation @ 485 nm and emission @ 525 nm] for a total time of 60 seconds. 25 μL of 8× agonist (800 μM sodium succinate) was added to each well using the flexstation after establishing the baseline for 20 sec, Measurement—Max-Min over 60 sec. Using the above protocol results obtained are tabulate din the Table 1 below: […]
row,Structure (SMILES),IC50 [µM]
1,"O=C(O)Cc1cccc(Oc2ncc(Oc3cccc4ccncc34)cc2C(F)(F)F)c1 [Compound A-36, 2-[3-[[5-(8-isoquinolyloxy)-3-(trifluoromethyl)-2-pyridyl]oxy]phenyl]acetic acid]",< 5
2,"O=C(O)CCc1cccc(Oc2ccc(Oc3ccnc4ccccc34)cc2C(F)(F)F)c1 [Compound A-13, 3-[3-[4-(4-quinolyloxy)-2-(trifluoromethyl)phenoxy]phenyl]propanoic acid]",> 10
3,"Cc1nc2ccc(Oc3ccc(Oc4cccc(CC(=O)O)c4)c(C4CC4)c3)cc2n1C1COC1 [Compound A-39, 2-[3-[2-cyclopropyl-4-[2-methyl-3-(oxetan-3-yl)benzimidazol-5-yl]oxy-phenoxy]phenyl]acetic acid]",< 5
4,"O=C(O)Cc1cccc(Oc2ccc(Oc3cnc4ncn(C5COC5)c4c3)cc2C(F)(F)F)c1 [Compound A-29, 2-[3-[4-[1-(oxetan-3-yl)imidazo[4,5-b]pyridin-6-yl]oxy-2-(trifluoromethyl)phenoxy]phenyl]acetic acid]",> 10
5,"N#Cc1n[nH]c2ccc(Oc3ccc(Oc4cccc(CC(=O)O)c4)c(C(F)(F)F)c3)cc12 [Compound A-46, 2-[3-[4-[(3-cyano-1H-indazol-5-yl)oxy]-2-(trifluoromethyl)phenoxy]phenyl]acetic acid]",< 5
6,"O=C(O)Cc1cccc(Oc2ccc(Oc3ccc4cnn(C5COC5)c4c3)cc2C(F)(F)F)c1 [Compound A-21, 2-[3-[4-[1-(oxetan-3-yl)indazol-6-yl]oxy-2-(trifluoromethyl)phenoxy]phenyl]acetic acid]",< 5
7,"Cc1nc2ccc(Oc3ccc(Oc4cccc(CC(=O)O)c4)c(C(F)F)c3)cc2n1C1COC1 [Compound A-28, 2-[3-[2-(difluoromethyl)-4-[2-methyl-3-(oxetan-3-yl)benzimidazol-5-yl]oxy-phenoxy]phenyl]acetic acid]",< 5
8,"O=C(O)CCc1cccc(Oc2ccc(OC3CCc4ccccc43)cc2C(F)(F)F)c1 (stereo not shown) [Compound A-44, 3-[3-[4-indan-1-yloxy-2-(trifluoromethyl)phenoxy]phenyl]propanoic acid]",5 to 10
9,"O=C(O)Cc1cccc(Oc2ccc(Oc3ccc4nn(C5COC5)cc4c3)cc2C(F)(F)F)c1 [Compound A-24, 2-[3-[4-[2-(oxetan-3-yl)indazol-5-yl]oxy-2-(trifluoromethyl)phenoxy]phenyl]acetic acid]",> 10
10,"O=C(O)CCc1ccc(Oc2ccc(Oc3cccc4ccncc34)cc2C(F)(F)F)cc1 [Compound A-34, 3-[4-[4-(8-isoquinolyloxy)-2-(trifluoromethyl)phenoxy]phenyl]propanoic acid]",< 5
11,"O=C(O)Cc1cccc(Oc2ccc(Oc3ccc4c(cnn4C4COC4)c3)cc2C(F)(F)F)c1 [Compound A-23, 2-[3-[4-[1-(oxetan-3-yl)indazol-5-yl]oxy-2-(trifluoromethyl)phenoxy]phenyl]acetic acid]",> 10
12,"FC(F)(F)c1cc(Oc2cccc3ccncc23)ccc1Oc1cccc(CCc2nnc[nH]2)c1 [Compound D-1, 8-[4-[3-[2-(4H-1,2,4-triazol-3-yl)ethyl]phenoxy]-3-(trifluoromethyl)phenoxy]isoquinoline]",> 10
13,"O=C(O)Cc1cccc(Oc2ccc(Oc3cccc4ncncc34)cc2C(F)(F)F)c1 [Compound A-9, 2-[3-[4-quinazolin-5-yloxy-2-(trifluoromethyl)phenoxy]phenyl]acetic acid]",< 5
14,"Cn1cc2c(Oc3ccc(Oc4cccc(CC(=O)O)c4)c(C(F)(F)F)c3)cccc2n1 [Compound A-15, 2-[3-[4-(2-methylindazol-4-yl)oxy-2-(trifluoromethyl)phenoxy]phenyl]acetic acid]",< 5
15,"Cc1nccc2cccc(Oc3ccc(Oc4cccc(CC(=O)O)c4)c(C(F)(F)F)c3)c12 [Compound A-41, 2-[3-[4-[(1-methyl-8-isoquinolyl)oxy]-2-(trifluoromethyl)phenoxy]phenyl]acetic Acid]",< 5
16,"NC(=O)Cc1cccc(Oc2ccc(Oc3cccc4ccncc34)cc2C(F)(F)F)c1 [Compound C-3, 2-[3-[4-(8-isoquinolyloxy)-2-(trifluoromethyl)phenoxy]phenyl]acetamide]",< 5

row,Structure (SMILES),IC50 [µM]
1,"O=C(O)Cc1cccc(Oc2ccc(Oc3ccc4cn(C5COC5)nc4c3)cc2C(F)(F)F)c1 [Compound A-22, 2-[3-[4-[2-(oxetan-3-yl)indazol-6-yl]oxy-2-(trifluoromethyl)phenoxy]phenyl]acetic acid]",< 5
2,"O=C(O)CCc1cccc(Oc2ccc(Oc3cccc4cnccc34)cc2C(F)(F)F)c1 [Compound A-14, 3-[3-[4-(5-isoquinolyloxy)-2-(trifluoromethyl)phenoxy]phenyl]propanoic acid]",< 5
3,"O=C(O)CCc1cccc(Oc2ccc(Oc3cccn4ccnc34)cc2C(F)(F)F)c1 [Compound A-7, 3-[3-[4-imidazo[1,2-a]pyridin-8-yloxy-2-(trifluoromethyl)phenoxy]phenyl]propanoic acid]",> 10
4,"O=C(O)Cc1cccc(Oc2ccc(Oc3ccc4nnn(C5COC5)c4c3)cc2C(F)(F)F)c1 [Compound A-25, 2-[3-[4-[3-(oxetan-3-yl)benzotriazol-5-yl]oxy-2-(trifluoromethyl)phenoxy]phenyl]acetic acid]",< 5
5,"O=C(O)Cc1cccc(Oc2ccc(Oc3ccc4c(ccn4CC(=O)O)c3)cc2C(F)(F)F)c1 [Compound A-32, 2-[3-[4-[1-(carboxymethyl)indol-5-yl]oxy-2-(trifluoromethyl)phenoxy]phenyl]acetic acid]",> 10
6,"O=C(O)Cc1cccc(Oc2ccc(Oc3ccc4[nH]nc(C(=O)O)c4c3)cc2C(F)(F)F)c1 [Compound A-47, 5-[4-[3-(carboxymethyl)phenoxy]-3-(trifluoromethyl)phenoxy]-1H-indazole-3-carboxylic acid]",< 5
7,"O=C(O)Cc1cccc(Oc2ccc(Oc3ccc4ncccc4c3)cc2C(F)(F)F)c1 [Compound A-6, 2-[3-[4-(6-quinolyloxy)-2-(trifluoromethyl)phenoxy]phenyl]acetic acid]",5 to 10
8,"O=C(O)Cc1cccc(Oc2ccc(Oc3cccc4cnncc34)cc2C(F)(F)F)c1 [Compound A-2, 2-[3-[4-phthalazin-5-yloxy-2-(trifluoromethyl)phenoxy]phenyl]acetic acid]",< 5
9,"Cn1cc2cc(Oc3ccc(Oc4cccc(CCC(=O)O)c4)c(C(F)(F)F)c3)ccc2n1 [Compound A-35, 3-[3-[4-(2-methylindazol-5-yl)oxy-2-(trifluoromethyl)phenoxy]phenyl]propanoic acid]",< 5
10,"O=C(O)Cc1cccc(Oc2ccc(Oc3ccc4ccn(C5COC5)c4n3)cc2C(F)(F)F)c1 [Compound A-30, 2-[3-[4-[1-(oxetan-3-yl)pyrrolo[2,3-b]pyridin-6-yl]oxy-2-(trifluoromethyl)phenoxy]phenyl]acetic acid]",> 10
11,"O=C(O)Cc1cccc(Oc2ccc(Oc3cccn4cncc34)cc2C(F)(F)F)c1 [Compound B-2, 2-[3-[4-imidazo[1,5-a]pyridin-8-yloxy-2-(trifluoromethyl)phenoxy]phenyl]acetic acid]",< 5
12,"O=C(O)Cc1cccc(Oc2ccc(Oc3ccc4cnc(C(=O)O)n4c3)cc2C(F)(F)F)c1 [Compound A-31, 6-[4-[3-(carboxymethyl)phenoxy]-3-(trifluoromethyl)phenoxy]imidazo[1,5-a]pyridine-3-carboxylic acid]",< 5
13,"O=C(O)CCc1cccc(Oc2ccc(Oc3cccc4ccncc34)cc2C(F)(F)F)c1 [Compound A-42, 3-[3-[4-(8-isoquinolyloxy)-2-(trifluoromethyl)phenoxy]phenyl]propanoic acid]",< 5
14,"O=C(O)Cc1cccc(Oc2ccc(Oc3ccn4cnnc4c3)cc2C(F)(F)F)c1 [Compound A-19, 2-[3-[4-([1,2,4]triazolo[4,3-a]pyridin-7-yloxy)-2-(trifluoromethyl)phenoxy]phenyl]acetic acid]",> 10
15,"Cn1ncc2c(Oc3ccc(Oc4cccc(CC(=O)O)c4)c(C(F)(F)F)c3)cccc21 [Compound A-16, 2-[3-[4-(1-methylindazol-4-yl)oxy-2-(trifluoromethyl)phenoxy]phenyl]acetic acid]",< 5
